Consider one substance from US9447056B2, “Solid forms of epalrestat” (Bionevia Pharmaceuticals, Inc., priority 2008, dated 2016).

The nature of this data set: Solid-form stability on compression into a disk (XRPD). It counts as physicochemical. The following applies: compressed into a disk at 3400 pounds of pressure (117 MPa) for 1 minute, Carver hydraulic press and pellet die. The text has this:
In various embodiments, the novel betaine cocrystal of epalrestat described herein is stable.

For “betaine hydrogen diepalrestat [betaine hydrogen diacid cocrystal]”, the “change in XRPD pattern after compression” value was “no change in the XRPD pattern”.
